Laboratory results taken from patent US10918645B2 (LIFEARC, priority 2016, dated 2021).

Key:
Assay type in all cases: biochemical
Conditions in all cases: 1 μM inhibitor concentration
Src = Src (Homo sapiens (Human), UniProt P12931); assay: Src kinase selectivity assay
Method: Src (5-20 mU diluted in 50 mM Tris pH 7.5, 0.1 mM EGTA, 0.1% b-mercaptoethanol, 1 mg/ml BSA) is assayed against a substrate peptide ([…]) in a final volume of 25.5 μl containing 50 mM Tris pH 7.5, 0.05% b-mercaptoethanol, 300 μM substrate peptide, 10 mM magnesium acetate and 0.05 mM [33P-g-ATP] (50-1000 cpm/pmole) and incubated for 30 min at room temperature. Assays are stopped by addition of 5 μl of 0.5 M (3%) orthophosphoric acid and then harvested onto P81 Unifilter plates with a wash buffer of 50 mM orthophosphoric acid.

EPH-A2 = EPH-A2 (Homo sapiens (Human), UniProt P29317); assay: EPH-A2 kinase selectivity assay
Method: EPH-A2 (5-20 mU diluted in 50 mM Tris pH 7.5, 0.1 mM EGTA, 1 mg/ml BSA) is assayed against a substrate peptide (Poly Glut Tyr) in a final volume of 25.5 μl containing 50 mM Tris pH 7.5, 0.1 mg/ml substrate peptide, 10 mM magnesium acetate and 0.05 mM [33P-g-ATP] (50-1000 cpm/pmole) and incubated for 30 min at room temperature. Assays are stopped by addition of 5 μl of 0.5 M (3%) orthophosphoric acid and then harvested onto P81 Unifilter plates with a wash buffer of 50 mM orthophosphoric acid.

Lck = Lck kinase selectivity assay
Method: LCK (5-20 mU diluted in 20 mM MOPS pH 7.5, 1 mM EDTA, 0.01% Brij35, 5% glycerol, 0.1% b-mercaptoethanol, 1 mg/ml BSA) is assayed against Cdc2 peptide ([…]) in a final volume of 25.5 μl containing 50 mM Tris pH 7.5, 0.1 mM EGTA, 0.1 mM Na3Vo4, Cdc2 peptide (0.25 mM), 10 mM magnesium acetate and 0.05 mM [33P-g-ATP](500-1000 cpm/pmole) and incubated for 15 min at room temperature Assays are stopped by addition of 5 μl of 0.5 M (3%) orthophosphoric acid and then harvested onto P81 Unifilter plates with a wash buffer of 50 mM orthophosphoric acid.

SmMLCK = SmMLCK (Homo sapiens (Human), UniProt Q15746); assay: SmMLCK kinase selectivity assay
Method: (§1) 5-20 mU of smMLCK (diluted in 50 mM Hepes (pH 7.5), 0.1 mM EGTA, 1 mg/ml BSA, 0.1%, b-Mercaptoethanol) is assayed against substrate peptide ([…]) in a final volume of 25.5 μl containing 50 mM Hepes (pH 7.5), 0.1 mM EGTA, 5 mM CaCl2, 10 M Calmodulin, 300 μM substrate peptide, 10 mM magnesium acetate and 0.05 mM [33P-g-ATP](500-1000 cpm/pmole) and incubated for 30 mins at room temperature. Assays are stopped by addition of 5 μl of 0.5M (3%) orthophosphoric acid. Assays are harvested onto P81 Unifilter plates using a wash buffer of 50 mM orthophosphoric acid.

S6K1 = S6K1 (Homo sapiens (Human), UniProt P23443); assay: S6K1 kinase selectivity assay
Method: S6K1/P70 S6K (5-20 mU diluted in 20 mM MOPS pH 7.5, 1 mM EDTA, 0.01% Brij35, 5% glycerol, 0.1% b-mercaptoethanol, 1 mg/ml BSA) is assayed against substrate peptide ([…]) in a final volume of 25.5 μl containing 8 mM MOPS pH 7.0, 0.2 mM EDTA, 0.1 mM substrate peptide, 10 mM magnesium acetate and 0.02 mM [33P-g-ATP] (50-1000 cpm/pmole) and incubated for 30 min at room temperature. Assays are stopped by addition of 5 μl of 0.5 M (3%) orthophosphoric acid and then harvested onto P81 Unifilter plates with a wash buffer of 50 mM orthophosphoric acid.

PKCa = PKCa (Homo sapiens (Human), UniProt P17252); assay: PKCa kinase selectivity assay
Method: PKCa (5-20 mU diluted in 20 mM Hepes pH 7.4, 0.03% Triton X-100) is assayed against Histone H1 in the presence of PtdSerine and DAG (0.1 mg/ml. and 10 μg/ml) and 0.1 mM CaCl2. The assay is carried out in a final volume of 25.5 μl containing 20 mM Hepes pH 7.4, 0.03% Triton X-100, 0.1 mg/ml Histone H1, 10 mM magnesium acetate and 0.02 mM[33P-g-ATP] (50-1000 cpm/pmole) and incubated for 30 min at room temperature. Assays are stopped by addition of 5 μl of 0.5 M (3%) orthophosphoric acid and then harvested onto P81 Unifilter plates with a wash buffer of 50 mM orthophosphoric acid.
PtdSer/DAG preparation:—PtdSer stock=10 mg/ml in MeOH/Chloroform (1:2). Dry down required amount. Resuspend in appropriate volume of 10 mM Hepes pH 7.4. Vortex and briefly sonicate. (2×10-15 seconds at 10-15 seconds apart). DAG stock=10 mg/ml in MeOH/chloroform (1:2). Dry down required amount. Add sonicated PtdSer solution. Vortex and sonicate.

PDK1 = PDK1 (Homo sapiens (Human), UniProt O15530); assay: PDK1 kinase selectivity assay
Method: PDK1 (5-20 mU diluted in 50 mM Tris pH 7.5, 0.05% b-mercaptoethanol, 1 mg/ml BSA) is assayed against PDKtide ([…]-[…]) in a final volume of 25.5 μl containing 50 mM Tris pH 7.5, 0.05% b-mercaptoethanol, 100 μM substrate peptide, 10 mM magnesium acetate and 0.02 mM [33P-g-ATP](50-1000 cpm/pmole) and incubated for 30 min at room temperature Assays are stopped by addition of 5 μl of 0.5 M (3%) orthophosphoric acid and then harvested onto P81 Unifilter plates with a wash buffer of 50 mM orthophosphoric acid.

CAMKKb = CAMKKb (Homo sapiens (Human), UniProt Q96RR4); assay: CAMKKb kinase selectivity assay
Method: as §1, with “of CAMKKb” for “of smMLCK”, “mM Tris” for “mM Hepes”, “EGTA, 0.5” for “EGTA, 5”, “CaCl2, 0.3 μM calmodulin, 0.1%, b-Mercaptoethanol,” for “CaCl2, 10 M Calmodulin,”, “and 0.02” for “and 0.05”

Src, sequence (P12931 whole entry, looked up, species assumed): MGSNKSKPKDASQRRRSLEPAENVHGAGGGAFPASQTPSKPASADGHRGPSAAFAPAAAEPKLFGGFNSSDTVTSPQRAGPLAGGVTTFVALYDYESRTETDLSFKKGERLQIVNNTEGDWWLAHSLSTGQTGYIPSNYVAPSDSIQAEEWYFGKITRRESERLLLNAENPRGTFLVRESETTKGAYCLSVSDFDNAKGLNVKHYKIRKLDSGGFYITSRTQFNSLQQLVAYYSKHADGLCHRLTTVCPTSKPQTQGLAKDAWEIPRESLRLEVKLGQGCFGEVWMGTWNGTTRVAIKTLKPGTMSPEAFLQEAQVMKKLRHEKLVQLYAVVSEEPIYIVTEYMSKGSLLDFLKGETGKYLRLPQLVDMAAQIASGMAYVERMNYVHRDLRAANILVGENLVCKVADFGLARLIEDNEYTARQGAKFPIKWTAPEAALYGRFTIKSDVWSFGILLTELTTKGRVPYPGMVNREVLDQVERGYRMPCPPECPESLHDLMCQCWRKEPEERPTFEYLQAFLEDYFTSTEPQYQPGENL
PDK1, sequence (O15530 whole entry): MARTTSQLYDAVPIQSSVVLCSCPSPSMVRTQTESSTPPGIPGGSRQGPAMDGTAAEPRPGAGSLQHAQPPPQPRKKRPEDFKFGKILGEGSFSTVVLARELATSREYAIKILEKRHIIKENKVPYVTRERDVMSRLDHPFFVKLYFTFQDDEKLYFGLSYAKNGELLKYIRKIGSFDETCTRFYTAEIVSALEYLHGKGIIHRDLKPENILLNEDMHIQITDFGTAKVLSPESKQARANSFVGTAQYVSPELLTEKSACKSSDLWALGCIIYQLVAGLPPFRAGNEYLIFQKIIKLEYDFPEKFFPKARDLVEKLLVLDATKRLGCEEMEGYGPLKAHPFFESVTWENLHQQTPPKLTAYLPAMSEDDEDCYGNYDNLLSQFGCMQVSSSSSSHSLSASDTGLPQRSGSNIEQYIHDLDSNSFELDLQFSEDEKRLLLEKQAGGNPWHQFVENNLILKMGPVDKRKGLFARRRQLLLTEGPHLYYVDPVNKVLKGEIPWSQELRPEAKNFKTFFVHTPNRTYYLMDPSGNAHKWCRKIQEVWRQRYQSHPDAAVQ
EPH-A2, sequence (P29317 24-976, species assumed): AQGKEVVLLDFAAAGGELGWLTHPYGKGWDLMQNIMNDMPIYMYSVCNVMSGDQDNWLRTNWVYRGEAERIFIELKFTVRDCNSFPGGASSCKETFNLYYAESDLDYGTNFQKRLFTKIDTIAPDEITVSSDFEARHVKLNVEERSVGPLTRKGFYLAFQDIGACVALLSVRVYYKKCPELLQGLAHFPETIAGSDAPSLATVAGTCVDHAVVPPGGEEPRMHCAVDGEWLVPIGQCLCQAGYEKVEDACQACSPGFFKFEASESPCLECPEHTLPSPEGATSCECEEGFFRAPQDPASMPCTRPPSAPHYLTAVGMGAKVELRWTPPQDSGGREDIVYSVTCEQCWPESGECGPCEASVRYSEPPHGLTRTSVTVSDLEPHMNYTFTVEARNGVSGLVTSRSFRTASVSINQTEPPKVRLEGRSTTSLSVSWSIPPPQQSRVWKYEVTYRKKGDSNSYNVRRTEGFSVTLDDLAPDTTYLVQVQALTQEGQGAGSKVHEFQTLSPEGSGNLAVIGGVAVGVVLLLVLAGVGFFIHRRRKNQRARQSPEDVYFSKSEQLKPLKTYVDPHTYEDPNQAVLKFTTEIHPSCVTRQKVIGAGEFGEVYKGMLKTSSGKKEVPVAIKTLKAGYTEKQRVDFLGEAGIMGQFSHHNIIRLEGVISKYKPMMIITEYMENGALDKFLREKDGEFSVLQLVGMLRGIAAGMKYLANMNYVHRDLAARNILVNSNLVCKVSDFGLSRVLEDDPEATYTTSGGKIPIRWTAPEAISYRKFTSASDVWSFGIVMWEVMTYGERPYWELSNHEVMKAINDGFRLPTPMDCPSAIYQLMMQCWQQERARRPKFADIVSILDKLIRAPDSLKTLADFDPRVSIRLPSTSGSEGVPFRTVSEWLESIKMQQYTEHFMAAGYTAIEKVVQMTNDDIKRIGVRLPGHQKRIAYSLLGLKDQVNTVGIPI
S6K1, sequence (P23443 whole entry, species assumed): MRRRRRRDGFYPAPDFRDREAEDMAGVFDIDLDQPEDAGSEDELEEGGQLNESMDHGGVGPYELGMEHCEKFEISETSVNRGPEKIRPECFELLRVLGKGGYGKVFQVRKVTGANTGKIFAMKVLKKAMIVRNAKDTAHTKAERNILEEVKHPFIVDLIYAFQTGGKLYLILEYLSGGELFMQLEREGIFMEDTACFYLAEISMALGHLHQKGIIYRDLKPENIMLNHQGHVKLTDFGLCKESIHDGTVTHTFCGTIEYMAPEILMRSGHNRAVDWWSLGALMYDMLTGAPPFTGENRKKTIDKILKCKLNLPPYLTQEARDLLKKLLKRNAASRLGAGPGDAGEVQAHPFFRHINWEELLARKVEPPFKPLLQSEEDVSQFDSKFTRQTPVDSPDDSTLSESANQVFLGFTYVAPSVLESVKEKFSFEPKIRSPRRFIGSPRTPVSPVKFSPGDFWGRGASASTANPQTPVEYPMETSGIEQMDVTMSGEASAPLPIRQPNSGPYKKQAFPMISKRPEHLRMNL

Structure (SMILES) | percentage inhibition of Src (Src) | percentage inhibition of EPH-A2 (EPH-A2) | percentage inhibition of Lck (Lck) | percentage inhibition of SmMLCK (SmMLCK) | percentage inhibition of S6K1 (S6K1) | percentage inhibition of PKCa (PKCa) | percentage inhibition of PDK1 (PDK1) | percentage inhibition of CAMKKb (CAMKKb)
c1cc2[nH]nc3c2c(n1)N(C1CCOCC1)CCC3 [Example 29, 6-(tetrahydro-2H-pyran-4-yl)-6,7,8,9-tetrahydro-2H-1,2,5,6-tetraazabenzo[cd]azulene] | 0 percentage | 0 percentage | 0 percentage | 11 percentage | 2 percentage | 11 percentage | 2 percentage | 0 percentage
CN1CCC(N2Cc3ccccc3-c3n[nH]c4ccnc2c34)CC1 [Example 55] | 1 percentage | 0 percentage | 6 percentage | 16 percentage | 17 percentage | 0 percentage | 42 percentage | 0 percentage
c1cc2[nH]nc3c2c(n1)N(C1CCCC1)CCC3 [Example 23, 6-cyclopentyl-6,7,8,9-tetrahydro-2H-1,2,5,6-tetraazabenzo[cd]azulene] | 0 percentage | 0 percentage | – | 15 percentage | 0 percentage | 0 percentage | 0 percentage | 7 percentage
CC(C)n1ncc2c1CN(C1CCN(C)CC1)c1nccc3[nH]nc-2c13 [Example 68] | 0 percentage | 0 percentage | 0 percentage | 9 percentage | 0 percentage | 2 percentage | 21 percentage | 0 percentage
c1cc2[nH]nc3c2c(n1)N(C1CCC1)CCC3 [Example 22, 6-cyclobutyl-6,7,8,9-tetrahydro-2H-1,2,5,6-tetraazabenzo[cd]azulene] | 13 percentage | 0 percentage | 0 percentage | 16 percentage | 0 percentage | 0 percentage | 7 percentage | 5 percentage
